Results published in patent US6080425A, “Boron compounds and complexes as skin-rejuvenating agents” (TopGene, Inc., priority 1998, dated 2000).
“Also recorded” adds a separate entry of the source.

Tests used:
human platelets = conditions: intact human platelets stimulated by thrombin or leukotriene B4; extracellular addition; cited from earlier work
[1] = system: rat cerebral microsomal preparations; conditions: cited from earlier work
neutrophiles = conditions: intact neutrophiles stimulated by thrombin or leukotriene B4; extracellular addition; cited from earlier work
cat fleas = conditions: ingestion by cat fleas; cited from earlier work
HIV = conditions: cited from earlier work
normal human fibroblasts [2] = assay: Cytotoxicity on normal human fibroblasts by MTT assay (FIG. 3); assay type: cell-based; conditions: 72 hours; for cytotoxic effects (MTT assay), in words: single dose, normal human fibroblasts, FIG. 3: increasing concentrations
Excerpt: (§1) FIGS. 3-7 illustrate results of experiments designed to elucidate some of the biological properties that may be present in contemplated boron compounds/complexes. In these examples, we studied the action of two boron complexes: sodium fructo-borate (SFB) and sodium salicylato-borate (SSB), upon normal human fibroblasts, in comparison to untreated fibroblasts and ones treated with boric acid (BA, uncomplexed with any ligand). FIG. 3 depicts results of a single dose treatment of human fibroblasts with increasing concentrations of BA, SFB and SSB for 72 hours in order to determine their cytotoxic effects (by MTT assay).

human fibroblasts = assay: H3Proline/H3Leucine incorporation in human fibroblasts (FIG. 5); assay type: cell-based; conditions: single dose, compared to untreated cells
normal human fibroblasts [3] = assay: H3Proline incorporation in human fibroblasts (FIG. 4); assay type: cell-based; conditions: single dose, 72 hours, vs BA, SFB, SSB
Experimental: FIG. 4 is a graph depicting experimental results of H3Proline incorporation (in human fibroblasts) upon treatment with A, B, and C compared to untreated cells.
FIG. 4 depicts results from treatment of normal human fibroblasts with a single dose of BA, SFB and SSB for 72 hours, whereupon the final degree of incorporation of H3Proline was determined. The degree of H3Proline incorporation is a measure of the ongoing biosynthesis of collagen in treated cells.

normal human fibroblasts [4] = assay: Collagen synthesis: ratio of H3Proline to H3Thymidine incorporation in human fibroblasts (FIG. 6); assay type: cell-based; conditions: single dose, 72 hours
Experimental: FIG. 6 is a graph depicting experimental results of increase of collagen synthesis (measured by determination of ratio between incorporation of H3Proline and H3Thymidine) in human fibroblasts by treating them with A, B and C, compared to untreated cells.
FIG. 6 depicts the results of a single dose treatment of normal human fibroblasts with the selected compounds for 72 hours, in which case the increase of collagen synthesis was calculated by ratio between incorporation of H3Proline over the incorporation of H3Thymidine under the same experimental conditions. In this experiment, SFB was best at the concentration of 1 ug/ml, while at the concentration of 10 ug/ml its activity was next to BA. […] These properties are of special value for skin-rejuvenation purposes.

normal human fibroblasts [5] = assay: Multi-parameter analysis of biological activity, labeling cells with tritiated Uridine, Thymidine, Leucine and Proline (FIG. 7); assay type: cell-based; conditions: labeling for 8 hours
Excerpt: FIG. 7 is a graph depicting a multi-parameter analysis of biological activity of complex B.
as §1
FIG. 7 depicts a multi-parameter analysis of biological activity of SFB.

[6] = system: chick embryo pelvic cartilage; conditions: cited from earlier work
[7] = same concentration, great molar excess of glucose in culture medium

Compound: NCCOB(c1ccccc1)c1ccccc1 [Example 2-APB, 2-amonoethoxydiphenyl borate]
- inhibition of cytosolic Ca rise (human platelets): inhibited
- inhibition of Ins(1,4,5)P3-induced Ca release [1]: inhibited
- inhibition of cytosolic Ca rise (neutrophiles): inhibited

Compound: O.O.O.O.O=BOB1OB(OB=O)OB2OB([O-])OB([O-])OB(O1)O2.[Na+].[Na+] [disodium octaborate tetrahydrate]
- larvicidal effects (cat fleas): Larvicidal effects

Compound: CC(C)[C@@H](N)C(=O)O[C@H](C)[C@@H]1C/C=C\CC[C@H](O)C(C)(C)[C@@H]2CC[C@@H](C)[C@@]3(O2)O[B-]24O[C@@H](C(=O)O1)[C@]1(O[C@@H](CC[C@H]1C)C(C)(C)[C@H](O)CCC[C@@H]1C[C@H](OC(=O)[C@@H]3O2)[C@@H](C)O1)O4.[H+] [boromycin]
- anti-HIV activity (HIV): anti-HIV antibiotic

Compound: O.O.O.O.O.O.O.O.O.O.[Na+].[Na+].[O-]B1OB2OB([O-])OB(O1)O2 [sodium borate, reference compound]
- cytotoxic effects (MTT assay), in words (normal human fibroblasts [2]): minimal cytotoxic effects

Compound: O=C1O[B-]2(OC(=O)c3ccccc3O2)Oc2ccccc21 [SSB, sodium salicylato-borate]
- preferred incorporation of H3Proline over H3Leucine, in words (human fibroblasts): best performance

Compound: sodium fructo-borate [SFB]
- preferred incorporation of H3Proline over H3Leucine, in words (human fibroblasts): quite close
- degree of incorporation of H3Proline (measure of collagen biosynthesis), in words (normal human fibroblasts [3]): most beneficial effect
- fold less toxic than BA (boric acid) (normal human fibroblasts [2]; 100 ug/ml, MTT assay): ~4 times
- cytotoxic effects (MTT assay), in words (normal human fibroblasts [2]): least toxic; also recorded: least toxicity
- cytotoxic effects (MTT assay), in words (normal human fibroblasts [2]; listed as sodium fructo-borate): minimal cytotoxic effects
- cytotoxic effects (MTT assay), in words (normal human fibroblasts [2]; listed as sodium fructoborate): considerably less toxic than boric acid
- increase of collagen synthesis (ratio H3Proline/H3Thymidine incorporation), in words (normal human fibroblasts [4]; 1 ug/ml): best
- increase of collagen synthesis (ratio H3Proline/H3Thymidine incorporation), in words (normal human fibroblasts [4]; 10 ug/ml): next to BA
- overall effects (tritiated Uridine, Thymidine, Leucine and Proline labeling), in words (normal human fibroblasts [5]): quite favorable and beneficial

Compound: OB(O)O [BA, boric acid]
- intracellular synthesis of proteoglycans, collagen and TNF-alpha ([6]; 1-3% aqueous boric acid): strongly decreases
- release of proteoglycans, collagen and TNF-alpha into the culture medium ([6]; 1-3% aqueous boric acid): induces release
- intracellular protein synthesis [6, 7]: does not decrease
- protein secretion into the culture medium [6, 7]: still stimulates
- larvicidal effects (cat fleas): Larvicidal effects
